Reference: patent publication US20210032253A1, “PYRAZOLO[1,5-A][1,3,5]TRIAZINE-2-AMINE DERIVATIVE, PREPARATION METHOD THEREFOR AND MEDICAL USE THEREOF” (JIANGSU HENGRUI MEDICINE CO., LTD., priority 2018, published 2021)

Assays:
[1] = target: T1, adenosine A2a receptor (A2aR) (Homo sapiens, UniProt P29274); test: Inhibition of adenosine A2a receptor cAMP signaling pathway in CHO-K1/A2aR cells (HTRF cAMP dynamic 2 kit); format: cell-based; settings: Table 1, 20 nM ethylcarbazole
T1 construct: expressed in transfected cells; host or cells: CHO-K1
T1 sequence (P29274 whole entry): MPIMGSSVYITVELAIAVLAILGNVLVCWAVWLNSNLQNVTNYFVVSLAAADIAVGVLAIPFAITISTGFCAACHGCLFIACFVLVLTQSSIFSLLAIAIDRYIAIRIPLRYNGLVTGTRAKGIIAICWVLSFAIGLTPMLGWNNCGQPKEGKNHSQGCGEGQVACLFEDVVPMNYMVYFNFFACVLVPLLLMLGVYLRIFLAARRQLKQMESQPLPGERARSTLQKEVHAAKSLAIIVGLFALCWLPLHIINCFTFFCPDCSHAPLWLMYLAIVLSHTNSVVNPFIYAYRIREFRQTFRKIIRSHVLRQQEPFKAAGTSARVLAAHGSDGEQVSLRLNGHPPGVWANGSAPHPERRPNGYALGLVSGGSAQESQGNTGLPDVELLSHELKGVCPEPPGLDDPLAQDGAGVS
Procedure, shortened: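 CHO-K1/A2aR cells (10^6 cells/mL) in HBSS with 20 mM HEPES, 0.1% BSA, rolipram and adenosine deaminase, exposed to compound (0.001024–10000 nM) for 30 min at RT. Then agonist "ethylcarbazole" at 20 nM final, 30 min RT. cAMP read by HTRF after 1 h in lysis buffer.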

[2] = target: T2, adenosine A1 receptor (A1R) (Homo sapiens, UniProt P30542); test: Inhibition of adenosine A1 receptor cAMP signaling pathway in CHO-K1/A1R cells (HTRF cAMP dynamic 2 kit); format: cell-based; settings: Table 2; for IC50: CHO-K1/A1R cells, cAMP, 10 μM forskolin, 10 nM CPA; for IC50 ratio (A1R/A2aR): selectivity A1R over A2aR
T2 construct: expressed in transfected cells; host or cells: CHO-K1
T2 sequence (P30542 1-326): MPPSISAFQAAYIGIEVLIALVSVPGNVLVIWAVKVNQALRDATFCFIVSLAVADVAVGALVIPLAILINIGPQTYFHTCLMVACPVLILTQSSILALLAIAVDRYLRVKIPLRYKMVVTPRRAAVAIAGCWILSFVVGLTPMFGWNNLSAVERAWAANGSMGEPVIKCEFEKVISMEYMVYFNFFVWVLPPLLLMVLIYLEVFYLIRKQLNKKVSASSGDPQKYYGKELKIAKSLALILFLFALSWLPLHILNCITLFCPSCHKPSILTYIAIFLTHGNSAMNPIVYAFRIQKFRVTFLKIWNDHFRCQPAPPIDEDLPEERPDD
Procedure, shortened: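 CHO-K1 cells stably expressing A1R, in HBSS with 20 mM HEPES, 0.1% BSA, rolipram and adenosine deaminase, were pre-incubated 30 min at RT with compound (0.1–100000 nM final). Cells were then stimulated 30 min with 10 μM forskolin plus 10 nM CPA. Intracellular cAMP was read by HTRF after 1 h detection.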

[3] = Pharmacokinetics assay in mice after intragastrical administration (plasma, LC/MS/MS); format: in vivo; settings: mouse, po, C57 mice (female), 2 mg/kg; for Vd/F: read-out: Apparent distribution volume Vz/F; for AUC: read-out: Area under curve AUC; for CL/F: read-out: Clearance CLz/F; for Cmax: read-out: Drug concentration in blood Cmax; for half-life: read-out: Half-life T1/2 (converted); for MRT: read-out: Residence time MRT
Experimental: Test Example 2. Pharmacokinetics assay of the compounds of the present disclosure in mice
Mice were used as test animals. The drug concentration in plasma at different time points was determined by LC/MS/MS method after intragastrical administration of the compounds of Example 1, Example 18 and Example 19 to mice. The pharmacokinetic behavior of the compounds of the present disclosure was studied and evaluated in mice.
Twenty-seven C57 mice (female) were purchased from Shanghai Jiesijie Laboratory Animal Co., LTD, with Certificate No.: SCXK (Shanghai) 2013-0006, and equally divided into 3 groups (9 mice per group).
A certain amount of the test compound was weighed, and added with 2.5% by volume of DMSO, 2.5% by volume of tween 80 and 95% by volume of normal saline to prepare a 0.1 mg/mL colorless, clear and transparent solution.
After an overnight fast, C57 mice were administered intragastrically with the test compounds at an administration dose of 2.0 mg/kg and an administration volume of 0.2 mL/10 g.
The mice were intragastrically administered with the compounds of Example 1, Example 18 and Example 19. 0.1 mL of blood (3 animals at each time point) was taken before administration and at 0.5, 1.0, 2.0, 4.0, 6.0, 8.0, 11.0 and 24.0 hours after administration. The samples were stored in heparinized tubes, and centrifuged for 10 minutes at 3,500 rpm to separate the plasma. The plasma samples were stored at −20° C., the mice was feed 2 hours after administration.
The content of the test compounds in the plasma of the mice after intragastrical administration of the test compounds at different concentrations was determined: 25 μL of the plasma obtained at each time point after administration was taken, added with 30 μL of the internal standard solution of camptothecin (100 ng/mL) and 200 μL of acetonitrile, vortex-mixed for 5 minutes, and centrifuged for 10 minutes (4000 rpm). 3 μL of the supernatant was taken for LC/MS/MS analysis.

SMILES	IC50 [1] [nM]	IC50 [2] [nM]	IC50 ratio (A1R/A2aR) [2]	Vd/F [3] [L/kg]	AUC [3] [µg·h/mL]	CL/F [3] [L/h/kg]	Cmax [3] [µg/mL]	half-life [3] [h]	MRT [3] [h]
Cc1ccc(-c2nc(N)nc3c(Cc4cccc(CO[C@H]5CCOC5)n4)cnn23)o1 [Example 1, (S)-4-(5-Methylfuran-2-yl)-8-((6-(((tetrahydrofuran-3-yl)oxy)methyl)pyridin-2-yl)methyl)pyrazolo[1,5-a][1,3,5]triazin-2-amine]	0.33	1120	>10^3	1.9	0.724	2.75	0.8	0.48	0.85
Cc1ccc(-c2nc(N)nc3c(Nc4cccc(CO[C@H]5CCOC5)n4)cnn23)o1 [Example 18, (S)-4-(5-Methylfuran-2-yl)-N^8-(6-(((tetrahydrofuran-3-yl)oxy)methyl)pyridin-2-yl)pyrazolo[1,5-a][1,3,5]triazine-2,8-diamine]	0.87	2540	>10^3	0.841	4.86	0.41	3.18	1.42	1.63
Cc1ccc(-c2nc(N)nc3c(Oc4cccc(CO[C@H]5CCOC5)n4)cnn23)o1 [Example 19, (S)-4-(5-Methylfuran-2-yl)-8-((6-(((tetrahydrofuran-3-yl)oxy)methyl)pyridin-2-yl)oxy)pyrazolo[1,5-a][1,3,5]triazin-2-amine]	0.36	2860	>10^3	2.12	2.49	0.798	2.36	1.85	1.24
